Legend:
[1] = target: c-Met kinase (Homo sapiens (Human), UniProt P08581); experiment: c-Met TR-FRET kinase assay; type: biochemical; settings: 1000 nM compound
Procedure: Compounds were screened in the TR-FRET assay with c-Met kinase. 0.1 ng of c-Met [expressed in-house] kinase was used for assay. The compound was incubated with the kinase for 60 min at RT. After the incubation, substrate mix [40 nM Ultra light poly GT (Perkin Elmer, USA) and 10 μM ATP (Sigma)] was added. The above reaction was stopped by the addition of 40 mM EDTA after the 30 min kinase reaction. The Eu-labelled antiphospho-tyrosine antibody [Perkin Elmer, USA] was added at 0.5 nM and the fluorescence emission at 615 nm/665 nm [excitation at 340 nm] was measured. The compounds were initially screened at 100 nM and 1 μM concentrations. The compounds with >50% inhibition at 100 nM of c-Met were taken for the full dose response studies. The final DMSO concentration in the assay was 1%. For IC50 determination, ⅓rd serial dilution was made from the 20 mM DMSO stock solution. 2 μl of these were transferred to the test wells containing 20 μl reaction mixture [total reaction volume 20 μl]. The fluorescence was measured in Perkin Elmer Wallac 1420 Multilabel Counter Victor 3. The IC50 was determined by fitting the dose response data to sigmoidal curve fitting equation using GraphPad Prism software V5.

[2] = target: FGFR1 kinase (Homo sapiens (Human), UniProt P11362); experiment: FGFR1 TR-FRET kinase assay; type: biochemical; settings: for IC50: 13 μM ATP, read-out: IC50 of FGFR1 inhibition
FGFR1 kinase, sequence (P11362 22-822): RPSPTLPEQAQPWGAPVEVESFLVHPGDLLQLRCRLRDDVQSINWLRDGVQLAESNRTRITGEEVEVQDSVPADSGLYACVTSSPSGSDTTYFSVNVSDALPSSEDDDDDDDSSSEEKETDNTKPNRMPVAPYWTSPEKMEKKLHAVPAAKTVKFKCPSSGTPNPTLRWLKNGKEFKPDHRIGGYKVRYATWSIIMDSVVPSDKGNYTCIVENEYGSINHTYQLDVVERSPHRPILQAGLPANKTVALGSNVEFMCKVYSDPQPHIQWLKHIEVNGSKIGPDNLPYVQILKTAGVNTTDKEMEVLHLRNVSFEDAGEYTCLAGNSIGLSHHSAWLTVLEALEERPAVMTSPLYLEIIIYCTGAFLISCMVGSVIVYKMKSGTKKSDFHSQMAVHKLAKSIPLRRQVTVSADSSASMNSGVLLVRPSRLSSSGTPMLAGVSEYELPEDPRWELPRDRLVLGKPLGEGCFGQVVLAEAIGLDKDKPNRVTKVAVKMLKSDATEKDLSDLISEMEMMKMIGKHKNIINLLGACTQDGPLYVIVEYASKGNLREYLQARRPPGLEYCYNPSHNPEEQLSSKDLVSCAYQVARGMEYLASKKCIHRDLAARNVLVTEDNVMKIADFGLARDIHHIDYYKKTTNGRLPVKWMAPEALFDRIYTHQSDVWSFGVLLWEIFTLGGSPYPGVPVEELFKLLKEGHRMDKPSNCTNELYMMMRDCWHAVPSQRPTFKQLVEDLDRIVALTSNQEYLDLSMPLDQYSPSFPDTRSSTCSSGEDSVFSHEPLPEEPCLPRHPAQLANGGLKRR
Procedure: Compounds were screened in the TR-FRET assay with FGFR1 kinase. 5 ng of FGFR1 [Upstate, USA] kinase was used for assay. The compound was incubated with the kinase for 30 minutes at RT. After the incubation, substrate mix [40 nM Ultra light poly GT (Perkin Elmer, USA) and 13 μM ATP (Sigma)] was added. The above reaction was stopped by the addition of 40 mM EDTA after the […] kinase reaction. The Eu-labelled antiphospho-tyrosine antibody [Perkin Elmer, USA] was added at 0.5 nM and the fluorescence emission at 615 nm/665 nm [excitation at 340 nm] was measured. The compounds were initially screened at 100 nM and 1 μM concentrations. The compounds with >50% inhibition at 100 nM of FGFR1 were taken for the full dose response studies. The final DMSO concentration in the assay was 1%. For IC50 determination, ⅓^rd serial dilution was made from the 20 mM DMSO stock solution. 2 μl of these were transferred to the test wells containing 20 μl of the reaction mixture [total reaction volume 20 μl]. The fluorescence was measured in Perkin Elmer Wallac 1420 Multilabel Counter Victor 3. The IC50 was determined by fitting the dose response data to sigmoidal curve fitting equation using GraphPad Prism software V5.

c-Met kinase, sequence (P08581 25-1390): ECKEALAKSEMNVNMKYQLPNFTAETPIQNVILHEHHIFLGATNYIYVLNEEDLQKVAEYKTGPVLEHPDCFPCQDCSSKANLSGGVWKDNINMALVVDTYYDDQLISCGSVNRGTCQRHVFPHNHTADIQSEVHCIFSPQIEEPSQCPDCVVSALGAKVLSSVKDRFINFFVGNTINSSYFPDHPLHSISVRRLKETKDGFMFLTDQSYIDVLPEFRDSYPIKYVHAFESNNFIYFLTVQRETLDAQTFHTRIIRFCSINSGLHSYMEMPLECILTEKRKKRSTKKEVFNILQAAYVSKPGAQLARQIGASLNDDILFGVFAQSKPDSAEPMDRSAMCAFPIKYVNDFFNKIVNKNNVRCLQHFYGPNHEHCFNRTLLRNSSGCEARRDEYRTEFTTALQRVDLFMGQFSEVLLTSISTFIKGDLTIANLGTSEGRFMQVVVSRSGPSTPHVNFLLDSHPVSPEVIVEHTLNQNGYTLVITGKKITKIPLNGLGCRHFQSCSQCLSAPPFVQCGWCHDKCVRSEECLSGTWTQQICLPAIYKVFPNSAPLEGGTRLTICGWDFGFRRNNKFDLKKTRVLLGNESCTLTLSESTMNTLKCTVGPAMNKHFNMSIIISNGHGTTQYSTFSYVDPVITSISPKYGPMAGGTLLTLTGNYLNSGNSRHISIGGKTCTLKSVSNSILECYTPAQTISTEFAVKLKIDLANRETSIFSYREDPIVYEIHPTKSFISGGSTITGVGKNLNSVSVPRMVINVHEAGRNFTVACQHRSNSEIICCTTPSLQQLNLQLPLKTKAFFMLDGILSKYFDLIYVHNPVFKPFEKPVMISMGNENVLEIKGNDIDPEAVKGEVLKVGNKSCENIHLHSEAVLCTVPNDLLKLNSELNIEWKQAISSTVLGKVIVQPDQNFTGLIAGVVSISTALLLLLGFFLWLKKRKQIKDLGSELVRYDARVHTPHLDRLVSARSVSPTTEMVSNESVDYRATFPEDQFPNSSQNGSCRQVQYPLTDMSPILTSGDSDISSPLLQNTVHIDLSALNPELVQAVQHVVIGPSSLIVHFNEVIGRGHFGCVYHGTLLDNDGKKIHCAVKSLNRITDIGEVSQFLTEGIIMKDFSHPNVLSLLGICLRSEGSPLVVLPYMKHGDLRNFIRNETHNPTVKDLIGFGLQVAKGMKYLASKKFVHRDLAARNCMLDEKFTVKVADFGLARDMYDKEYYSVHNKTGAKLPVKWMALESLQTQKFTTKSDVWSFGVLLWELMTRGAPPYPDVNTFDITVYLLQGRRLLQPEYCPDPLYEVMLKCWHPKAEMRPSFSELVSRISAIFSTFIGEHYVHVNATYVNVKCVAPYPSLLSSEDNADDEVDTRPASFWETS

inhibition at 1 µM [1] | inhibition at 1 µM ([2]; 1000 nM compound) | IC50 [2] | SMILES | Inhibition (%) of FGFR1 at 1000 nM ([2]; 1000 nM compound)
12% | 95% | 22 nM | COc1ccc(-c2cc(NC(C)=O)cc(-n3cnc4cc(-c5cnn(C)c5)ccc43)c2)cn1 [Example 158, N-(3-(6-methoxypyridin-3-yl)-5-(5-(1-methyl-1H-pyrazol-4-yl)-1H-benzo[d]-imidazol-1-yl)phenyl)acetamide] | –
10% | 91% | 62 nM | CC(=O)Nc1cc(-n2cccn2)cc(-n2cnc3cc(-c4cnn(CC5CC5)c4)ccc32)c1 [Example 127, N-(3-(5-(1-(cyclopropylmethyl)-1H-pyrazol-4-yl)-1H-benzo[d]imidazol-1-yl)-5-(1H-pyrazol-1-yl)phenyl)acetamide] | –
23% | 94% | 83 nM | Cn1cc(-c2ccc3c(c2)ncn3-c2cc(NS(=O)(=O)N3CCCCC3)cc(-n3cccn3)c2)cn1 [Example 119, N-(3-(5-(1-methyl-1H-pyrazol-4-yl)-1H-benzo[d]imidazol-1-yl)-5-(1H-pyrazol-1-yl)phenyl)piperidine-1-sulfonamide] | –
0% | 97% | 1.8 nM | CC(=O)Nc1cc(-n2cccc2)cc(-n2cnc3cc(-c4cn(CCC(C)(C)O)nn4)ccc32)c1 [Example 112, N-(3-(5-(1-(3-hydroxy-3-methylbutyl)-1H-1,2,3-triazol-4-yl)-1H-benzo[d]-imidazol-1-yl)-5-(1H-pyrrol-1-yl)phenyl)acetamide] | –
5% | 99% | 3.8 nM | CC(=O)Nc1cc(-c2ccc(F)cc2F)cc(-n2cnc3cc(-c4cnco4)ccc32)c1 [Example 22, N-(2′,4′-difluoro-5-(5-(oxazol-5-yl)-1H-benzo[d]imidazol-1-yl)biphenyl-3-yl)-acetamide] | –
0% | 94% | 61 nM | O=C(NCc1ccco1)Nc1cc(-n2cccn2)cc(-n2cnc3cc(-n4cccn4)ccc32)c1 [Example 123, 1-(3-(5-(1H-pyrazol-1-yl)-1H-benzo[d]imidazol-1-yl)-5-(1H-pyrazol-1-yl)-phenyl)-3-(furan-2-ylmethyl)urea] | –
– | 92% | 65.8 nM | O=S(=O)(Nc1cc(C2=CC=C(F)CC2F)cc(-n2cnc3cc(N4CCC(O)C4)ccc32)c1)C1CC1 (centres unmarked) [Example 322, N-(2′,4′-difluoro-5-(5-(3-hydroxypyrrolidin-1-yl)-1H-benzo[d]imidazol-1-yl)-2′,3′-dihydro-[1,1′-biphenyl]-3-yl)cyclopropanesulfonamide] | –
– | 98% | 20 nM | CC(C)n1cc(-c2ccc3c(c2)ncn3-c2cc(NS(=O)(=O)C3CC3)cc(-c3ccc(F)cc3F)c2)cn1 [Example 204, N-(2′,4′-difluoro-5-(5-(1-isopropyl-1H-pyrazol-4-yl)-1H-benzo[d]imidazol-1-yl)-[1,1′-biphenyl]-3-yl)cyclopropanesulfonamide] | –
– | 92% | 45 nM | O=C(CN1CCCCC1)Nc1cc(-c2ccc(F)cc2F)cc(-n2cnc3cc(-n4cccn4)ccc32)c1 [Example 259, N-(5-(5-(1H-pyrazol-1-yl)-1H-benzo[d]imidazol-1-yl)-2′,4′-difluoro-[1,1′-biphenyl]-3-yl)-2-(piperidin-1-yl)acetamide] | –
9% | 98% | 3.4 nM | CCS(=O)(=O)Nc1cc(-c2ccc(F)cc2F)cc(-n2cnc3cc(-c4cn(CCN5CCOCC5)nn4)ccc32)c1 [Example 49, N-(2′,4′-difluoro-5-(5-(1-(2-morpholinoethyl)-1H-1,2,3-triazol-4-yl)-1H-benzo[d]imidazol-1-yl)biphenyl-3-yl)ethanesulfonamide] | –
– | 98% | 14 nM | Cn1cc(-c2cnc3c(c2)ncn3-c2cc(NS(=O)(=O)NC3CC3)cc(-c3ccc(F)cc3F)c2)cn1 [Example 244, N-cyclopropyl-N′-(2′,4′-difluoro-5-(6-(1-methyl-1H-pyrazol-4-yl)-3H-imidazo[4,5-b]pyridin-3-yl)-[1,1′-biphenyl]-3-yl)-sulfuric diamide] | –
– | 91% | 10.4 nM | CNS(=O)(=O)N(C)c1cc(-c2ccc(F)cc2F)cc(-n2cnc3cc(-c4cnn(C(C)C)c4)cnc32)c1 [Example 217, N-(2′,4′-difluoro-5-(6-(1-isopropyl-1H-pyrazol-4-yl)-3H-imidazo[4,5-b]pyridin-3-yl)-[1,1′-biphenyl]-3-yl)-N,N′-dimethylsulfuric diamide] | –
– | 94% | 32 nM | O=c1ccc(-c2ccc3c(c2)ncn3-c2cc(NS(=O)(=O)C3CC3)cc(-c3ccc(F)cc3F)c2)c[nH]1 [Example 289, N-(2′,4′-difluoro-5-(5-(6-oxo-1,6-dihydropyridin-3-yl)-1H-benzo[d]imidazol-1-yl)-[1,1′-biphenyl]-3-yl)cyclopropanesulfonamide] | –
– | 97% | 3.4 nM | CC(=O)Nc1cc(-c2ccc(F)cc2)cc(-n2cnc3cc(-c4cnn(CCC(C)(C)O)c4)ccc32)c1 [Example 220, N-(4′-fluoro-5-(5-(1-(3-hydroxy-3-methylbutyl)-1H-pyrazol-4-yl)-1H-benzo[d]-imidazol-1-yl)-[1,1′-biphenyl]-3-yl) acetamide] | –
– | 96% | 4.3 nM | COc1ccc(-c2cc(NC(C)=O)cc(-n3cnc4cc(-c5cnn(C)c5)ccc43)c2)c(F)c1 [Example 190, N-(2′-fluoro-4′-methoxy-5-(5-(1-methyl-1H-pyrazol-4-yl)-1H-benzo[d]imidazol-1-yl)-[1,1′-biphenyl]-3-yl)acetamide] | –
– | 96% | 9 nM | Cn1cc(-c2ccc3c(c2)ncn3-c2cc(Nc3nccs3)cc(-c3ccc(F)cc3F)c2)cn1 [Example 281, N-(2′,4′-difluoro-5-(5-(1-methyl-1H-pyrazol-4-yl)-1H-benzo[d]imidazol-1-yl)-[1,1′-biphenyl]-3-yl) thiazol-2-amine] | –
– | 89% | 94 nM | CC(=O)Nc1cc(-c2ccc(F)cc2F)cc(-n2cnc3cc(C4=NCCN4)ccc32)c1 [Example 169, N-(5-(5-(4,5-dihydro-1H-imidazol-2-yl)-1H-benzo[d]imidazol-1-yl)-2′,4′-difluoro-[1,1′-biphenyl]-3-yl)acetamide] | –
– | 97% | 18 nM | CN1CCC(C(=O)Nc2cc(-c3ccc(F)cc3F)cc(-n3cnc4cc(-c5cnn(C)c5)cnc43)c2)CC1 [Example 319, N-(2′,4′-difluoro-5-(6-(1-methyl-1H-pyrazol-4-yl)-3H-imidazo[4,5-b]pyridin-3-yl)-[1,1′-biphenyl]-3-yl)-1-methylpiperidine-4-carboxamide] | –
– | 99% | 9.3 nM | CS(=O)(=O)Nc1cc(-c2ncccc2F)cc(-n2cnc3cc(-c4cnn(CCN5CCOCC5)c4)ccc32)c1 [Example 294, N-(3-(3-fluoropyridin-2-yl)-5-(5-(1-(2-morpholinoethyl)-1H-pyrazol-4-yl)-1H-benzo[d]imidazol-1-yl)phenyl)methane sulphonamide] | –
– | 80% | 90 nM | Cn1cc(-c2ccc3c(c2)ncn3-c2cc(Nc3ncccn3)cc(-c3ccc(F)cc3F)c2)cn1 [Example 280, N-(2′,4′-difluoro-5-(5-(1-methyl-1H-pyrazol-4-yl)-1H-benzo[d]imidazol-1-yl)-[1,1′-biphenyl]-3-yl)pyrimidin-2-amine] | –
– | 92% | 59 nM | CC(=O)Nc1cc(-c2ccc(F)cc2)cc(-n2cnc3cc(-c4ccc(F)nc4)ccc32)c1 [Example 170, N-(4′-fluoro-5-(5-(6-fluoropyridin-3-yl)-1H-benzo[d]imidazol-1-yl)-[1,1′-biphenyl]-3-yl)acetamide] | –
– | 86% | 14.9 nM | CC(=O)Nc1cc(-c2ccc(F)cc2F)cc(-n2cnc3cc(-c4ccc(F)nc4)cnc32)c1 [Example 178, N-(2′,4′-difluoro-5-(6-(6-fluoropyridin-3-yl)-3H-imidazo[4,5-b]pyridin-3-yl)-[1,1′-biphenyl]-3-yl)acetamide] | –

SMILES | inhibition at 1 µM [1] | inhibition at 1 µM ([2]; 1000 nM compound) | IC50 [2] | Inhibition (%) of FGFR1 at 1000 nM ([2]; 1000 nM compound)
Cn1cc(-c2ccc3c(c2)ncn3-c2cc(NC(=O)Cn3cncn3)cc(-c3ccc(F)cc3F)c2)cn1 [Example 241, N-(2′,4′-difluoro-5-(5-(1-methyl-1H-pyrazol-4-yl)-1H-benzo[d]imidazol-1-yl)-[1,1′-biphenyl]-3-yl)-2-(1H-1,2,4-triazol-1-yl) acetamide] | – | – | 2.9 nM | 97%

Source: patent publication US9447091B2, “Protein kinase inhibitors” (Orion Corporation, priority 2011, dated 2016)
